c1ccc2[nH]cnc2c1
solubility (mole fraction)
Conditions | 283.15 K | 288.15 K | 293.15 K | 298.15 K | 303.15 K | 308.15 K | 313.15 K | 318.15 K | 323.15 K
in 1,4-dioxane | 0.0138 | 0.0171 | 0.0192 | 0.0215 | 0.0242 | 0.0256 | 0.0292 | 0.0321 | 0.0384
in 2-butanone | 0.0222 | 0.0265 | 0.03 | 0.0341 | 0.0393 | 0.0451 | 0.0521 | 0.0582 | 0.0664
in acetone | 0.0192 | 0.022 | 0.0256 | 0.0296 | 0.0342 | 0.0398 | 0.0452 | 0.0525 | 0.0576
in acetonitrile | 0.00513 | 0.0063 | 0.00754 | 0.00905 | 0.0107 | 0.0123 | 0.0148 | 0.0166 | 0.0194
in ethanol | 0.0767 | 0.0837 | 0.0911 | 0.0993 | 0.109 | 0.118 | 0.125 | 0.14 | 0.152
in ethyl acetate | 0.00813 | 0.0094 | 0.0108 | 0.0128 | 0.0143 | 0.0167 | 0.0193 | 0.0223 | 0.0259
in isobutanol | 0.0747 | 0.083 | 0.0947 | 0.103 | 0.114 | 0.125 | 0.134 | 0.139 | 0.156
in isobutyl acetate | 0.00698 | 0.00808 | 0.00944 | 0.0103 | 0.0122 | 0.0137 | 0.016 | 0.0176 | 0.0197
in isopropanol | 0.0636 | 0.073 | 0.0785 | 0.0852 | 0.0959 | 0.109 | 0.117 | 0.13 | 0.134
in isopropyl acetate | 0.00761 | 0.00867 | 0.01 | 0.0113 | 0.0132 | 0.0152 | 0.0169 | 0.0191 | 0.0219
in methanol | 0.0888 | 0.097 | 0.105 | 0.113 | 0.12 | 0.129 | 0.143 | 0.157 | 0.17
in methyl acetate | 0.00781 | 0.00918 | 0.0108 | 0.0126 | 0.0146 | 0.0167 | 0.0198 | 0.0228 | 0.0265
in n-butanol | 0.0857 | 0.091 | 0.105 | 0.113 | 0.121 | 0.13 | 0.141 | 0.15 | 0.161
in n-butyl acetate | 0.0064 | 0.00759 | 0.00873 | 0.0102 | 0.0121 | 0.0144 | 0.0166 | 0.0182 | 0.0216
in n-pentanol | 0.0983 | 0.105 | 0.109 | 0.119 | 0.129 | 0.137 | 0.143 | 0.155 | 0.165
in n-propanol | 0.0798 | 0.0896 | 0.0961 | 0.107 | 0.113 | 0.121 | 0.137 | 0.147 | 0.156
in n-propyl acetate | 0.00645 | 0.0076 | 0.009 | 0.0105 | 0.0127 | 0.0141 | 0.0165 | 0.0189 | 0.0219
in sec-butanol | 0.0881 | 0.0973 | 0.105 | 0.11 | 0.117 | 0.127 | 0.137 | 0.151 | 0.162
in water | 0.000498 | 0.000604 | 0.000739 | 0.000874 | 0.000994 | 0.00115 | 0.00133 | 0.00156 | 0.00184
